Laboratory results taken from US20240254138A1, “TRICYCLIC PYRIMIDINES AS CYCLIN-DEPENDENT KINASE 7 (CDK7) INHIBITORS” (JANSSEN PHARMACEUTICA NV, priority 2021, published 2024).
Where two headings read alike, the source gives them in different places.

Key:
[1] = system: RNA Polymerase II Serine 5 phosphorylation in A549 cells overexpressing CDK7-mutant (C312S); experiment: Imaging-based cellular RNA PolII Ser5 phosphorylation assay in A549 cells overexpressing CDK7-mutant (C312S); format: cell-based, human; details: for IC50: Homo sapiens
Summary of the method: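 Readout was automated imaging of anti-phospho-Ser5 Rpb1 CTD immunofluorescence, with IC50 fitted to % control versus concentration. Cells were A549 stably overexpressing non-covalently targetable CDK7 C312S alongside wild-type, exposed to compound 3 h at 37 °C. DMSO and 10 μM reference compound served as controls.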

[2] = system: RNA Polymerase II Serine 5 phosphorylation (Rpb1 CTD, downstream substrate of CDK7) in A549 cells; experiment: Imaging-based cellular RNA PolII Ser5 phosphorylation assay in A549 cells; format: cell-based, human; details: for IC50: Homo sapiens
Summary of the method: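 IC50 derived by fitting % control (DMSO high, 10 μM reference low) against concentration, with Hill slope. Readout: high-content imaging of phospho-Ser5 Rpb1 CTD antibody staining in fixed, permeabilized A549 cells exposed to compound 3 h after 20 h culture in 1% FBS DMEM.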

[3] = target: CDK7/cyclinH/MAT1 trimeric complex (Homo sapiens, UniProt P50613); experiment: In vitro CDK7 assay, potency of irreversible covalent inhibitors (kinact/KI), coupled PK/LDH ADP readout at 340 nm; details: for Ki: CDK7 (20 nM enz.) (KI, μM)
CDK7/cyclinH/MAT1 trimeric complex, sequence (P50613 whole entry): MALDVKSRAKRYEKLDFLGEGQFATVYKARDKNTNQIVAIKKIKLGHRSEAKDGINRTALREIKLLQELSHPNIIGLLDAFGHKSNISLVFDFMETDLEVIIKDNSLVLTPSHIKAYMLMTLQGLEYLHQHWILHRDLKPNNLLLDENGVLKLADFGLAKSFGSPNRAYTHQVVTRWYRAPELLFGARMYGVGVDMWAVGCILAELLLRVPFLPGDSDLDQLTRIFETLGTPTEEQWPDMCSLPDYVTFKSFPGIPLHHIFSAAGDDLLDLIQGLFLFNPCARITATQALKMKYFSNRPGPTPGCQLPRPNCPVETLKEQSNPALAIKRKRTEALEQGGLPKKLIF
CDK7/cyclinH/MAT1 trimeric complex, sequence (P51946 whole entry partner): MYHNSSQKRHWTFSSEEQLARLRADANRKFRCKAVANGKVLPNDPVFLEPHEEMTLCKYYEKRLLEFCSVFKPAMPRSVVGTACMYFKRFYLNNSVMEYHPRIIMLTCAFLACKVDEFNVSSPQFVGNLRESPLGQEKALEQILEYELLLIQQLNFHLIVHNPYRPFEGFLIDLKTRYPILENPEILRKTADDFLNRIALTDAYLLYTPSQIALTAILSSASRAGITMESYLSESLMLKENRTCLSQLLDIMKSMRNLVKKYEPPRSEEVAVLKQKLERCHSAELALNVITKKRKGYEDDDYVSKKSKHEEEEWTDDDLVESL
CDK7/cyclinH/MAT1 trimeric complex, sequence (P51948 whole entry partner): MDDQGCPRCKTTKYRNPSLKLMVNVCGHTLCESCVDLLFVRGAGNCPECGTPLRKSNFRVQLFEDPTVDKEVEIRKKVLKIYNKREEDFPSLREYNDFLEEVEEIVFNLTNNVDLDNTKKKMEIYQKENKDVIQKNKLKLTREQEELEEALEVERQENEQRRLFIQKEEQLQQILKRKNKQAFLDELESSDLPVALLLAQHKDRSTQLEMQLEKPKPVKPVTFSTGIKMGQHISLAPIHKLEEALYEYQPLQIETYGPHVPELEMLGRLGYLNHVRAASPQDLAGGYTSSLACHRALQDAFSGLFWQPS

[4] = A549, A549 cells overexpressing CDK7-mutant (C312S), RNA PolII Ser5 phosphorylation, averaged over all measurements, read-out: CDK7_A549 mutant hCDK7(pIC50) (converted)
[5] = A549, A549 cells, wild-type CDK7, RNA PolII Ser5 phosphorylation, averaged over all measurements, read-out: CDK7_A549 Wild-type CDK7 (pIC50) (converted)
[6] = read-out: CDK7 (20 nM enz.) (kinact, s^−1), 20 nM enzyme
[7] = read-out: CDK7 (20 nM enz.) (kinact/KI, M^−1*s^−1), 20 nM enzyme
[8] = read-out: CDK7 (20 nM enz.) (kobs/[I], M^−1*s^−1), 20 nM enzyme

C=CC(=O)N1CC(N2CCC(c3ccc4c(c3)Nc3nccc(-c5cnn(C)c5)c3C(C)(C)O4)CC2)C1 [Compound 152]
IC50 [1, 4]: > 10000 nM
IC50 [2, 5]: ~67.6 nM
Ki ([3]; 20 nM enzyme): 0.0242 µM
kinact [3, 6]: 4.68e-05 s⁻¹
kinact/KI [3, 7]: 1940 M⁻¹ s⁻¹

C=CC(=O)N1CC(N2CCC(O)(c3ccc4c(c3)Nc3nccc(N5CCOCC5)c3C(C)O4)CC2)C1 (stereo not shown) [Compound 154]
IC50 [1, 4]: > 10000 nM
IC50 [2, 5]: 117 nM
Ki ([3]; 20 nM enzyme): 0.137 µM
kinact [3, 6]: 5.98e-05 s⁻¹
kinact/KI [3, 7]: 438 M⁻¹ s⁻¹

C=CC(=O)N1CC(N2CCC(c3cc(C)c4c(c3)Nc3ncc(C#N)c(N5CCOCC5)c3CO4)CC2)C1 [Compound 156]
IC50 [1, 4]: > 10000 nM
IC50 [2, 5]: 490 nM
Ki ([3]; 20 nM enzyme): 0.304 µM
kinact [3, 6]: 9.03e-05 s⁻¹
kinact/KI [3, 7]: 298 M⁻¹ s⁻¹

C=CC(=O)N1CC(N2CCC(c3cc4c(c(C(N)=O)c3)OCc3c(C5CCOCC5)ccnc3N4)CC2)C1 [Compound 158]
IC50 [1, 4]: > 3980 nM
IC50 [2, 5]: 126 nM
Ki ([3]; 20 nM enzyme): 0.204 µM
kinact [3, 6]: 7.68e-05 s⁻¹
kinact/KI [3, 7]: 377 M⁻¹ s⁻¹

C=CC(=O)N1CC(N2CCC(O)(c3cc(C)c4c(c3)Nc3nccc(C5CCOCC5)c3CO4)CC2)C1 [Compound 159]
IC50 [1, 4]: > 10000 nM
IC50 [2, 5]: 70.8 nM
Ki ([3]; 20 nM enzyme): 0.144 µM
kinact [3, 6]: 0.000115 s⁻¹
kinact/KI [3, 7]: 794 M⁻¹ s⁻¹

C=CC(=O)Nc1ccc(-c2cc3c(cn2)OCc2c(N4CCOCC4)ccnc2N3)cc1 [Compound 160]
IC50 [1, 4]: > 10000 nM
IC50 [2, 5]: 64.6 nM
Ki ([3]; 20 nM enzyme): 0.0393 µM
kinact [3, 6]: 6.88e-05 s⁻¹
kinact/KI [3, 7]: 1750 M⁻¹ s⁻¹

C#Cc1cc2c(cc1C1CCN(C3CN(C(=O)C=C)C3)CC1)Nc1nccc(N3CCOCC3)c1C(C)O2 (stereo not shown) [Compound 161]
IC50 [1, 4]: > 10000 nM
IC50 [2, 5]: 123 nM
Ki ([3]; 20 nM enzyme): 0.0363 µM
kinact [3, 6]: 3.09e-05 s⁻¹
kinact/KI [3, 7]: 851 M⁻¹ s⁻¹

C=CC(=O)N1CC2(CC(c3cc(F)c4c(c3)Nc3nccc(N5CCOCC5)c3CO4)C2)C1 [Compound 162]
IC50 [1, 4]: > 10000 nM
IC50 [2, 5]: 182 nM
Ki ([3]; 20 nM enzyme): 0.149 µM
kinact [3, 6]: 4.88e-05 s⁻¹
kinact/KI [3, 7]: 327 M⁻¹ s⁻¹

C=CC(=O)N1CCC(N2CC(c3cc4c(c(C)n3)OCc3c(N5CCOCC5)ccnc3N4)C2)CC1 [Compound 165]
IC50 ([1]; A549, read-out: CDK7_A549 mutant hCDK7(pIC50) (converted)): 6030 nM
IC50 ([2]; A549, read-out: CDK7_A549 Wild-type CDK7 (pIC50) (converted)): 57.5 nM
Ki ([3]; 20 nM enzyme): 0.0638 µM
kinact ([3]; read-out: CDK7 (20 nM enz.) (kinact, s^−1)): 5.16e-05 s⁻¹
kinact/KI ([3]; read-out: CDK7 (20 nM enz.) (kinact/KI, M^−1*s^−1)): 808 M⁻¹ s⁻¹

C=CC(=O)N1CC(N2CC(c3cc(F)c4c(c3)Nc3nccc(N5CCOCC5)c3CO4)C2)C1 [Compound 166]
IC50 [1, 4]: > 10000 nM
IC50 [2, 5]: 75.9 nM
Ki ([3]; 20 nM enzyme): 0.0262 µM
kinact [3, 6]: 5.16e-05 s⁻¹
kinact/KI [3, 7]: 1970 M⁻¹ s⁻¹

C=CC(=O)N1CC(N2CC(c3ccc4c(c3)Nc3nccc(C5CCOCC5)c3CO4)C2)C1 [Compound 167]
IC50 [1, 4]: > 10000 nM
IC50 [2, 5]: 105 nM
Ki ([3]; 20 nM enzyme): 0.0325 µM
kinact [3, 6]: 5.4e-05 s⁻¹
kinact/KI [3, 7]: 1660 M⁻¹ s⁻¹

C#Cc1cc2c(cc1C1CCN(C3CN(C(=O)C=C)C3)CC1)Nc1nccc(C3CCOCC3)c1C(C)O2 (stereo not shown) [Compound 169]
IC50 [1, 4]: > 10000 nM
IC50 [2, 5]: 53.7 nM
Ki ([3]; 20 nM enzyme): 0.0532 µM
kinact [3, 6]: 3.63e-05 s⁻¹
kinact/KI [3, 7]: 682 M⁻¹ s⁻¹

C=CC(=O)N1CCC(N2CC(c3cc4c(c(C)n3)OCc3c(-c5cnn(C)c5)ccnc3N4)C2)CC1 [Compound 170]
IC50 [1, 4]: 7760 nM
IC50 [2, 5]: 120 nM
Ki ([3]; 20 nM enzyme): 0.125 µM
kinact [3, 6]: 3.7e-05 s⁻¹
kinact/KI [3, 7]: 296 M⁻¹ s⁻¹

C=CC(=O)N1CC(N2CCC(c3cc4c(cc3C#N)OCc3c(N5CCOCC5)ccnc3N4)CC2)C1 [Compound 174]
IC50 [1, 4]: > 10000 nM
IC50 [2, 5]: 324 nM
Ki ([3]; 20 nM enzyme): 0.143 µM
kinact [3, 6]: 5.74e-05 s⁻¹
kinact/KI [3, 7]: 401 M⁻¹ s⁻¹

C#Cc1cc2c(cc1C1CCN(C3CN(C(=O)C=C)C3)CC1)Nc1nccc(N3CCOCC3)c1CO2 [Compound 175]
IC50 [1, 4]: > 10000 nM
IC50 [2, 5]: 240 nM
Ki ([3]; 20 nM enzyme): 0.0695 µM
kinact [3, 6]: 4.03e-05 s⁻¹
kinact/KI [3, 7]: 580 M⁻¹ s⁻¹

C=CC(=O)N1CC(N2CC(c3ccc4c(c3)Nc3nccc(-c5cnn(C)c5)c3CO4)C2)C1 [Compound 176]
IC50 [1, 4]: > 10000 nM
IC50 [2, 5]: 186 nM
Ki ([3]; 20 nM enzyme): 0.0372 µM
kinact [3, 6]: 5.38e-05 s⁻¹
kinact/KI [3, 7]: 1440 M⁻¹ s⁻¹

C=CC(=O)Nc1ccc(-c2ccc3c(c2)Nc2nccc(N4CCOCC4)c2CO3)cn1 [Compound 178]
IC50 [1, 4]: 6760 nM
IC50 [2, 5]: 22.4 nM
kinact/KI [3, 8]: 1910 M⁻¹ s⁻¹

C#Cc1cc(C2CCN(C3CN(C(=O)C=C)C3)CC2)cc2c1OC(C)c1c(N3CCOCC3)ccnc1N2 (stereo not shown) [Compound 181]
IC50 [1, 4]: > 10000 nM
IC50 [2, 5]: ~20.9 nM
kinact/KI [3, 8]: 864 M⁻¹ s⁻¹

C=C(F)C(=O)N1CC(N2CCC(c3ccc4c(c3)Nc3nccc(C5CCOCC5)c3CO4)CC2)C1 [Compound 188]
IC50 [1, 4]: > 10000 nM
IC50 [2, 5]: 1070 nM
Ki ([3]; 20 nM enzyme): 0.507 µM
kinact [3, 6]: 3.02e-05 s⁻¹
kinact/KI [3, 7]: 59.6 M⁻¹ s⁻¹

C=CC(=O)N1CC(N2CCC(c3cc(F)c4c(c3)Nc3nccc(-c5cnn(C)c5)c3CO4)CC2)C1 [Compound 189]
CDK7_A549 mutant hCDK7(pIC50) ([1]; A549 cells overexpressing CDK7-mutant (C312S), RNA PolII Ser5 phosphorylation, averaged over all measurements): <5
CDK7_A549 Wild-type CDK7 (pIC50) ([2]; A549 cells, wild-type CDK7, RNA PolII Ser5 phosphorylation, averaged over all measurements): 7.37
kinact/KI [3, 8]: 1440 M⁻¹ s⁻¹

C=CC(=O)N1CC(n2cc(-c3cc(C)c4c(c3)Nc3nccc(N5CCOCC5)c3CO4)cn2)C1 [Compound 190]
IC50 [1, 4]: ~8910 nM
IC50 [2, 5]: 33.9 nM
kinact/KI [3, 8]: 1250 M⁻¹ s⁻¹

C=CC(=O)N1CC(N2CC(c3ccc4c(c3)Nc3nccc(-c5cnn(C)c5)c3C(C)O4)C2)C1 (stereo not shown) [Compound 197]
IC50 [1, 4]: > 10000 nM
IC50 [2, 5]: 123 nM
Ki ([3]; 20 nM enzyme): 0.134 µM
kinact [3, 6]: 7.96e-05 s⁻¹
kinact/KI [3, 7]: 596 M⁻¹ s⁻¹

C=CC(=O)N1CC(N2CC(c3cc4c(c(C)n3)OCc3c(-c5cnn(C)c5)ccnc3N4)C2)C1 [Compound 198]
IC50 [1, 4]: > 10000 nM
IC50 [2, 5]: 240 nM
Ki ([3]; 20 nM enzyme): 0.365 µM
kinact [3, 6]: 4.47e-05 s⁻¹
kinact/KI [3, 7]: 122 M⁻¹ s⁻¹

C=CC(=O)N1CC(N2CC(c3cc4c(c(C)n3)OCc3c(N5CCOCC5)ccnc3N4)C2)C1 [Compound 205]
IC50 [1, 4]: > 10000 nM
IC50 [2, 5]: 93.3 nM
CDK7 (20 nM enz.) (kinact/KI, M^−1*s^−1) ([3]; 20 nM enzyme): 399.588 M⁻¹ s⁻¹
Ki ([3]; 20 nM enzyme): 0.119 µM
kinact [3, 6]: 4.74e-05 s⁻¹

C=CC(=O)N1CC(N2CC(c3cc(C)c4c(c3)Nc3nccc(N5CCOCC5)c3CO4)C2)C1 [Compound 215]
IC50 [1, 4]: > 10000 nM
IC50 [2, 5]: 64.6 nM
kinact/KI [3, 8]: 753 M⁻¹ s⁻¹
